The values below come from PubChem BioAssay (NCI).

The structures appear in SMILES notation.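 Grown in 96-well plates, cells were treated for 48 hours with each compound at five concentrations. Insufficient inhibition: endpoint recorded as highest concentration tested. Abbreviation: GI50, concentration required for 50% inhibition of growth. TGI denotes the concentration required for complete inhibition of growth.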

Among the test systems are RPMI-8226 leukemia; COLO 205 colon; OVCAR-5 ovarian; CAKI-1 renal; HL-60(TB) leukemia; SK-MEL-5 melanoma; HOP-62 NSCLC; HOP-92 NSCLC; NCI-H226 lung; HCC-2998 colon.
Holding throughout (experiment): NCI-60 cell line screen, 48 h

Turning to `Nc1ncnc2c1c(-c1ccc(Oc3ccccc3)cc1)nn2CC1SSCC1O` (stereo not given), the GI50 in the test with RPMI-8226 leukemia is 5.05 µM; in the test on COLO 205 colon, 1.25 µM; in the test with OVCAR-5 ovarian, 7.2 µM; in the test with CAKI-1 renal, 3.71 µM; in the test on HL-60(TB) leukemia, 1.49 µM; with SK-MEL-5 melanoma, 1.29 µM. Besides, the GI50 with HOP-62 NSCLC was 3.6 µM; with HOP-92 NSCLC, 1.72 µM; in the test on NCI-H226 lung it was 3.7 µM; in the test on HCC-2998 colon, 6.75 µM. Besides, the TGI stood at 21.3 µM with RPMI-8226 leukemia; 5.5 µM with COLO 205 colon; 28.8 µM with OVCAR-5 ovarian; 12.7 µM in the test with CAKI-1 renal; 7.99 µM with HL-60(TB) leukemia; 5.07 µM with SK-MEL-5 melanoma. Besides, the TGI came out at 11.1 µM in the test with HOP-62 NSCLC, 8.23 µM in the test on HOP-92 NSCLC, 9.91 µM with NCI-H226 lung and 20.5 µM in the test with HCC-2998 colon.
On to `S=C(Sc1ccc(Cl)cc1)Sc1ccc(Cl)cc1`, for which the GI50 was 1.09 µM in the test on RPMI-8226 leukemia; 2.29 µM in the test with COLO 205 colon; 2.32 µM in the test with OVCAR-5 ovarian; 2.96 µM in the test on CAKI-1 renal; 1.93 µM in the test on HL-60(TB) leukemia; 1.68 µM with SK-MEL-5 melanoma. In addition, the GI50 was 3.39 µM in the test on HOP-62 NSCLC, 1.99 µM in the test with HOP-92 NSCLC, 2.1 µM in the test on NCI-H226 lung and 3.08 µM with HCC-2998 colon. The TGI stood at 3 µM in the test with RPMI-8226 leukemia; 5.5 µM with COLO 205 colon; 4.81 µM with OVCAR-5 ovarian; 10.3 µM with CAKI-1 renal; 8.62 µM in the test with HL-60(TB) leukemia; 3.11 µM in the test with SK-MEL-5 melanoma. The TGI in the test on HOP-62 NSCLC amounted to 7.58 µM; in the test on HOP-92 NSCLC, 5.01 µM; in the test with NCI-H226 lung, 4.84 µM; in the test with HCC-2998 colon, 10.3 µM.
Turning to `OCC1OC(OC2(CO)OC(CO)C(O)C2O)C(O)C(O)C1O` (stereo not given), the GI50 in the test with RPMI-8226 leukemia, in the test with COLO 205 colon, in the test on OVCAR-5 ovarian, with CAKI-1 renal, with HL-60(TB) leukemia and in the test with SK-MEL-5 melanoma was over 100 µM in each case. For the same molecule, the GI50 in the test with HOP-62 NSCLC, with HOP-92 NSCLC, in the test with NCI-H226 lung and in the test with HCC-2998 colon was over 100 µM throughout. Also, the TGI in the test with RPMI-8226 leukemia, in the test with COLO 205 colon, in the test with OVCAR-5 ovarian, in the test with CAKI-1 renal, in the test on HL-60(TB) leukemia and in the test on SK-MEL-5 melanoma was over 100 µM in each case. Also, the TGI with HOP-62 NSCLC, in the test on HOP-92 NSCLC, in the test on NCI-H226 lung and with HCC-2998 colon was over 100 µM in each case.
For `CNC(=O)OCc1nc(SSc2nc(COC(=O)NC)c(COC(=O)NC)n2C)n(C)c1COC(=O)NC`, the TGI with RPMI-8226 leukemia, in the test on COLO 205 colon, with OVCAR-5 ovarian, in the test with CAKI-1 renal, with HL-60(TB) leukemia and in the test on SK-MEL-5 melanoma was over 100 µM each time. Besides, the TGI with HOP-62 NSCLC, in the test with HOP-92 NSCLC, in the test with NCI-H226 lung and in the test on HCC-2998 colon was over 100 µM throughout.
For `O=C1C2C(C(=O)N1Cc1ccccc1)N(Cc1ccccc1)C(=O)N2Cc1ccccc1` (stereo not given), the TGI in the test on RPMI-8226 leukemia, in the test with COLO 205 colon, with OVCAR-5 ovarian, in the test with CAKI-1 renal, with HL-60(TB) leukemia and in the test on SK-MEL-5 melanoma was over 100 µM each time. For the same molecule, the TGI in the test on HOP-62 NSCLC, in the test on HOP-92 NSCLC, in the test with NCI-H226 lung and with HCC-2998 colon was over 100 µM in each case.
With `CC(C)(C)O/N=C/c1cc(NC(=S)c2ccccc2)ccc1Cl`, the TGI in the test with RPMI-8226 leukemia came to 41 µM; in the test on COLO 205 colon, 27.8 µM; in the test on OVCAR-5 ovarian it was 69.7 µM; with CAKI-1 renal, 72.4 µM; with HL-60(TB) leukemia, 42.6 µM; in the test on SK-MEL-5 melanoma, 41.5 µM. For the same molecule, the TGI came to 37.1 µM in the test with HOP-62 NSCLC, 34.4 µM in the test on HOP-92 NSCLC, 34.7 µM in the test with NCI-H226 lung and 24.2 µM with HCC-2998 colon.
With `O=C([O-])c1ccc([I+]c2ccccc2)cc1`, the TGI in the test on RPMI-8226 leukemia, in the test on COLO 205 colon, in the test on OVCAR-5 ovarian, with CAKI-1 renal, in the test with HL-60(TB) leukemia and in the test with SK-MEL-5 melanoma was over 100 µM each time. For the same molecule, the TGI in the test with HOP-62 NSCLC, in the test with HOP-92 NSCLC, with NCI-H226 lung and in the test with HCC-2998 colon was over 100 µM throughout.
Turning to `C#COc1cccc(Nc2ncnc3cc(NC(=O)[C@@H](C)Cl)ccc23)c1`, the GI50 was 13.8 µM in the test on RPMI-8226 leukemia; 5.3 µM in the test with COLO 205 colon; 18 µM in the test with OVCAR-5 ovarian; 10.2 µM in the test with CAKI-1 renal; 2.02 µM in the test with HL-60(TB) leukemia; 4.09 µM with SK-MEL-5 melanoma. Moreover, the GI50 is 8.18 µM in the test with HOP-62 NSCLC, over 62.5 µM in the test with HOP-92 NSCLC, 50.1 µM in the test with NCI-H226 lung and 13.9 µM in the test on HCC-2998 colon. Moreover, the TGI was over 62.5 µM with RPMI-8226 leukemia; over 62.5 µM in the test with COLO 205 colon; over 62.5 µM in the test with OVCAR-5 ovarian; over 62.5 µM in the test with CAKI-1 renal; 8.25 µM with HL-60(TB) leukemia; 32.8 µM with SK-MEL-5 melanoma. Further, the TGI in the test on HOP-62 NSCLC, in the test on HOP-92 NSCLC, with NCI-H226 lung and with HCC-2998 colon was over 62.5 µM throughout.
For the molecule `O=[N+]([O-])/C=C/c1ccc2ccccc2c1`, the TGI with RPMI-8226 leukemia is over 100 µM; in the test on COLO 205 colon, 5.97 µM; in the test with OVCAR-5 ovarian it was over 30.1 µM; in the test with CAKI-1 renal it was 25.7 µM; with HL-60(TB) leukemia, 7.8 µM; in the test with SK-MEL-5 melanoma, 13.3 µM. In addition, the TGI with HOP-62 NSCLC is over 51.5 µM; in the test on HOP-92 NSCLC, 21.1 µM; in the test on NCI-H226 lung it was 21.3 µM; with HCC-2998 colon, 0.678 µM.
